Source: PubChem BioAssay (NCI)
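Results reflect a 48-hour exposure of cells in 96-well plates to compound at five concentrations. The concentration for full growth arrest is given as TGI.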

What was measured:
Assay in all cases: inhibition of tumour cell growth, NCI panel, 48 h
MALME-3M melanoma = tested on: MALME-3M melanoma
OVCAR-3 ovarian = tested on: OVCAR-3 ovarian
SF-295 CNS = tested on: SF-295 CNS
NCI-H23 lung = tested on: NCI-H23 lung
HCT-116 colon = tested on: HCT-116 colon
SNB-19 CNS = tested on: SNB-19 CNS
RPMI-8226 leukemia = tested on: RPMI-8226 leukemia
RXF 393 renal = tested on: RXF 393 renal
EKVX NSCLC = tested on: EKVX NSCLC
HOP-92 NSCLC = tested on: HOP-92 NSCLC
HCT-15 colon = tested on: HCT-15 colon
A549 NSCLC = tested on: A549 NSCLC
NCI/ADR-RES ovarian = tested on: NCI/ADR-RES ovarian
SK-MEL-28 melanoma = tested on: SK-MEL-28 melanoma
PC-3 prostate = tested on: PC-3 prostate
NCI-H226 lung = tested on: NCI-H226 lung
MCF7 breast = tested on: MCF7 breast
TK-10 renal = tested on: TK-10 renal
NCI-H460 lung = tested on: NCI-H460 lung
UACC-62 melanoma = tested on: UACC-62 melanoma
IGROV1 ovarian = tested on: IGROV1 ovarian
A498 renal = tested on: A498 renal
786-0 renal = tested on: 786-0 renal
SK-MEL-2 melanoma = tested on: SK-MEL-2 melanoma
OVCAR-5 ovarian = tested on: OVCAR-5 ovarian
SF-268 CNS = tested on: SF-268 CNS
DU-145 prostate = tested on: DU-145 prostate
SNB-75 CNS = tested on: SNB-75 CNS
OVCAR-8 ovarian = tested on: OVCAR-8 ovarian
BT-549 breast = tested on: BT-549 breast
SN12C renal = tested on: SN12C renal
MDA-MB-435 = tested on: MDA-MB-435
OVCAR-4 ovarian = tested on: OVCAR-4 ovarian
COLO 205 colon = tested on: COLO 205 colon
HL-60(TB) leukemia = tested on: HL-60(TB) leukemia
SR leukemia = tested on: SR leukemia
SF-539 CNS = tested on: SF-539 CNS
UO-31 renal = tested on: UO-31 renal
U251 CNS = tested on: U251 CNS
ACHN renal = tested on: ACHN renal
NCI-H522 lung = tested on: NCI-H522 lung
SK-MEL-5 melanoma = tested on: SK-MEL-5 melanoma
UACC-257 melanoma = tested on: UACC-257 melanoma
CAKI-1 renal = tested on: CAKI-1 renal
HOP-62 NSCLC = tested on: HOP-62 NSCLC
SK-OV-3 ovarian = tested on: SK-OV-3 ovarian
HT29 colon = tested on: HT29 colon
KM12 colon = tested on: KM12 colon
MDA-MB-231 breast = tested on: MDA-MB-231 breast
HS 578T breast = tested on: HS 578T breast
MOLT-4 leukemia = tested on: MOLT-4 leukemia
CCRF-CEM leukemia = tested on: CCRF-CEM leukemia
T-47D breast = tested on: T-47D breast
K-562 leukemia = tested on: K-562 leukemia
LOX IMVI melanoma = tested on: LOX IMVI melanoma
M14 melanoma = tested on: M14 melanoma
SW-620 colon = tested on: SW-620 colon

With `O=C1CCSC(=S)N1c1ccc(Br)c(Cl)c1` the TGI (MALME-3M melanoma) was 49.8 µM, the TGI (OVCAR-3 ovarian) was greater than 100 µM and the TGI (SF-295 CNS) was 73.1 µM. It also gave a TGI (NCI-H23 lung) greater than 100 µM, a TGI (HCT-116 colon) greater than 100 µM and a TGI (SNB-19 CNS) of 57.6 µM. It also gave a TGI (RPMI-8226 leukemia) greater than 100 µM, a TGI (RXF 393 renal) of 50.8 µM and a TGI (EKVX NSCLC) greater than 100 µM. It also gave a TGI (HOP-92 NSCLC) of 69.1 µM, a TGI (HCT-15 colon) of 40.2 µM and a TGI (A549 NSCLC) greater than 100 µM. The TGI (NCI/ADR-RES ovarian) was greater than 100 µM, the TGI (SK-MEL-28 melanoma) was 34.9 µM and the TGI (PC-3 prostate) was greater than 100 µM. For the same compound, the TGI (NCI-H226 lung) was 63.9 µM, the TGI (MCF7 breast) was 48.6 µM and the TGI (TK-10 renal) was 78.2 µM. For the same compound, the TGI (NCI-H460 lung) was 62.5 µM, the TGI (UACC-62 melanoma) was 58.7 µM and the TGI (IGROV1 ovarian) was 49.5 µM. It also gave a TGI (A498 renal) of 48.4 µM, a TGI (786-0 renal) of 62 µM and a TGI (SK-MEL-2 melanoma) of 58.2 µM. For the same compound, the TGI (OVCAR-5 ovarian) was greater than 100 µM, the TGI (SF-268 CNS) was 44.2 µM and the TGI (DU-145 prostate) was greater than 100 µM. It also gave a TGI (SNB-75 CNS) of 52.6 µM, a TGI (OVCAR-8 ovarian) of 92.1 µM and a TGI (BT-549 breast) of 41.1 µM. For the same compound, the TGI (SN12C renal) was greater than 100 µM, the TGI (MDA-MB-435) was 65.7 µM and the TGI (OVCAR-4 ovarian) was 50.3 µM. For the same compound, the TGI (COLO 205 colon) was 41.2 µM, the TGI (HL-60(TB) leukemia) was 75.9 µM and the TGI (SR leukemia) was greater than 100 µM. For the same compound, the TGI (SF-539 CNS) was greater than 100 µM, the TGI (UO-31 renal) was 82 µM and the TGI (U251 CNS) was 63.7 µM. It also gave a TGI (ACHN renal) of 38.9 µM, a TGI (NCI-H522 lung) of 42.6 µM and a TGI (SK-MEL-5 melanoma) of 35.9 µM. For the same compound, the TGI (UACC-257 melanoma) was 37.8 µM, the TGI (CAKI-1 renal) was 77.4 µM and the TGI (HOP-62 NSCLC) was greater than 100 µM. The TGI (SK-OV-3 ovarian) was 91.5 µM, the TGI (HT29 colon) was 33.8 µM and the TGI (KM12 colon) was 85.9 µM. The TGI (MDA-MB-231 breast) was 70 µM, the TGI (HS 578T breast) was greater than 100 µM and the TGI (MOLT-4 leukemia) was greater than 100 µM. For the same compound, the TGI (CCRF-CEM leukemia) was greater than 100 µM, the TGI (T-47D breast) was 39.5 µM and the TGI (K-562 leukemia) was greater than 100 µM. It also gave a TGI (LOX IMVI melanoma) of 50.4 µM, a TGI (M14 melanoma) greater than 100 µM and a TGI (SW-620 colon) of 91.6 µM.
